# Reference: patent US10517889B2, “Modulators of SMAD7 expression” (Ionis Pharmaceuticals, Inc., priority 2017, dated 2019)
# Strand notation (5' to 3'): a small letter for the sugar, then the base; units joined by * are phosphorothioate-linked, units joined directly phosphodiester-linked; [ ] holds rarer units or linkages, { } end groups; capitals alone tell only the bases. k = constrained ethyl (cEt); [5mC] = 5-methylcytosine; d = 2'-deoxy (DNA)
# Test system: human SMAD7 mRNA
# Experiment: Antisense inhibition of human SMAD7 mRNA expression in Hep3B cells by 3-10-3 cEt gapmers, 10,000 nM, electroporation (Example 2)
# Assay type: cell-based
# Details: Hep3B cells, 10,000 nM antisense oligonucleotide, electroporation, approximately 24 hours, RT-PCR primer probe set RTS5062, relative to untreated control cells
# How it was run: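 qRT-PCR (RTS5062) of SMAD7 mRNA, normalised to RIBOGREEN total RNA, gave percent inhibition relative to untreated controls. Hep3B cells at 20,000 per well received 10,000 nM oligonucleotide by electroporation, with ~24 h treatment.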
row,Substance,% Inhibition
1,798930 (antisense kG*kA*kA*dA*dA*dT*dA*dT*dT*dA*dG*d[5mC]*dA*kG*k[5mC]*kA) [compound 798930],62%

# Same assay, conditions: Hep3B cells, electroporation with 10,000 nM antisense oligonucleotide, approximately 24 hours, RTS5062, percent inhibition of SMAD7 mRNA relative to untreated control cells
row,Substance,% Inhibition
1,799625 (kA*kA*kT*dG*dA*dA*dA*dG*dT*dA*d[5mC]*dA*dA*kT*k[5mC]*kT; antisense) [compound 799625],31%
2,799530 (kG*k[5mC]*kT*d[5mC]*dA*dA*dT*dG*dA*dG*dA*d[5mC]*dT*kG*kG*k[5mC]; antisense) [compound 799530],34%
3,799842 (antisense kG*kA*kA*dA*dG*dA*dA*dT*dG*dG*dT*dG*dG*kG*kT*kG) [compound 799842],16%

# Same assay, conditions: Hep3B cells, electroporation with 10,000 nM antisense oligonucleotide, approximately 24 hours, SMAD7 mRNA by RT-PCR (RTS5062), relative to untreated control cells
row,Substance,% Inhibition
1,830077 (k[5mC]*k[5mC]*kA*d[5mC]*dA*dT*dT*d[5mC]*dA*dG*dG*dG*dT*kG*kT*k[5mC]; antisense) [compound 830077],37%
2,799473 (antisense kT*kA*kT*d[5mC]*d[5mC]*d[5mC]*dA*dT*dG*dG*d[5mC]*dT*d[5mC]*kT*k[5mC]*kA) [compound 799473],63%
3,830183 (antisense k[5mC]*kG*kG*dT*dT*dG*d[5mC]*d[5mC]*dT*d[5mC]*dA*dT*d[5mC]*k[5mC]*kT*kG) [compound 830183],47%
4,800022 (kG*kG*kA*dA*dG*dA*dG*d[5mC]*d[5mC]*dT*dT*dG*dG*k[5mC]*k[5mC]*kT; antisense) [compound 800022],30%
5,800000 (k[5mC]*kA*kT*dT*dT*dA*dG*dG*dA*dA*d[5mC]*dA*dA*kG*kG*kG; antisense) [compound 800000],37%
6,798902 (kT*kG*kA*d[5mC]*d[5mC]*dT*d[5mC]*dT*dA*dG*d[5mC]*d[5mC]*dA*kG*k[5mC]*kA; antisense) [compound 798902],54%
7,830038 (antisense k[5mC]*k[5mC]*kT*dA*dT*dT*dG*dG*d[5mC]*dT*dG*dA*dT*k[5mC]*kT*kG) [compound 830038],50%
8,830055 (kT*kT*kG*dG*dG*dT*dG*dA*dG*dT*dA*dA*d[5mC]*k[5mC]*kA*kG; antisense) [compound 830055],57%
9,772606 (kA*kG*k[5mC]*d[5mC]*dA*dT*dT*d[5mC]*d[5mC]*d[5mC]*d[5mC]*dT*dG*kA*kG*kG; antisense) [compound 772606],41%
10,798668 (kT*k[5mC]*k[5mC]*dG*dT*dG*dG*d[5mC]*dA*dT*dG*d[5mC]*dG*k[5mC]*k[5mC]*kA; antisense) [compound 798668],45%
11,799355 (kA*kG*kG*dA*dA*dA*d[5mC]*d[5mC]*dT*dA*dG*dA*dA*k[5mC]*k[5mC]*kA; antisense) [compound 799355],23%
12,799407 (antisense kT*kG*k[5mC]*dA*dG*dG*dA*dA*dA*d[5mC]*d[5mC]*d[5mC]*dA*kA*kG*kG) [compound 799407],33%
13,798886 (kT*k[5mC]*kT*dG*d[5mC]*dA*d[5mC]*dG*dG*dT*dA*dA*dA*kG*k[5mC]*k[5mC]; antisense) [compound 798886],29%
14,830196 (antisense kT*kT*kA*dA*dT*dG*dG*d[5mC]*d[5mC]*d[5mC]*dA*dG*d[5mC]*k[5mC]*k[5mC]*kA) [compound 830196],31%
15,790493 (kG*kT*kT*dG*dA*dT*d[5mC]*dT*dT*d[5mC]*d[5mC]*d[5mC]*dG*kT*kA*kA; antisense) [compound 790493],0%
16,799253 (antisense k[5mC]*kT*k[5mC]*d[5mC]*dA*dA*dA*dG*dG*dT*dG*d[5mC]*dG*k[5mC]*kG*kG) [compound 799253],0%
17,830159 (antisense k[5mC]*k[5mC]*kA*d[5mC]*dT*dA*dA*dA*dT*dT*dG*dA*dG*kA*kA*k[5mC]) [compound 830159],42%
18,800107 (antisense kA*kA*kT*d[5mC]*dT*dA*dG*dA*dA*dA*dA*d[5mC]*dA*k[5mC]*kA*kT) [compound 800107],0%
19,799337 (kG*kT*k[5mC]*dT*dT*dT*d[5mC]*d[5mC]*dG*dG*dG*dT*dG*k[5mC]*kG*kG; antisense) [compound 799337],30%

# Same assay, conditions: Hep3B cells, electroporation with 10,000 nM antisense oligonucleotide, approximately 24 hours, primer probe set RTS5062, relative to untreated control cells
Substance,% inhibition of SMAD7 mRNA expression,% Inhibition
798787 (kG*kA*kG*dA*d[5mC]*dT*d[5mC]*dT*dA*dG*dT*dT*d[5mC]*kG*k[5mC]*kA; antisense) [compound 798787],20%,–
799108 (antisense k[5mC]*kT*kG*dA*dG*d[5mC]*dT*dG*dG*dT*dT*dT*dT*k[5mC]*kT*kA) [compound 799108],64%,–
798780 (kA*kA*kG*dA*dT*dT*d[5mC]*dA*d[5mC]*dA*dG*d[5mC]*dA*kA*k[5mC]*kA; antisense) [compound 798780],58%,–
798774 (kT*kT*kG*dA*d[5mC]*dT*dT*d[5mC]*d[5mC]*dG*dA*dG*dG*kA*kA*kT; antisense) [compound 798774],12%,–
799399 (antisense kT*k[5mC]*k[5mC]*dA*dA*dA*dT*dT*dT*dG*dA*dA*dG*kA*kA*kT) [compound 799399],0%,–
799220 (kA*kA*kT*dT*dT*dG*dG*d[5mC]*dA*dT*dT*dT*dG*kT*kT*kA; antisense) [compound 799220],–,0%
798685 (antisense kG*kA*kG*dG*d[5mC]*dG*dA*dG*dG*dA*dG*dA*dA*kA*kA*kG) [compound 798685],58%,–
799156 (antisense kG*kA*kA*dA*dG*dA*dA*dG*dA*dG*dT*dT*dA*kG*kG*kT) [compound 799156],–,37%
798791 (k[5mC]*kA*kT*d[5mC]*dG*dG*dG*dT*dA*dT*d[5mC]*dT*dG*kG*kA*kG; antisense) [compound 798791],25%,–
772702 (k[5mC]*kG*kT*d[5mC]*dT*dT*dT*dA*dT*dA*dT*dT*dT*kA*k[5mC]*kA; antisense) [compound 772702],–,23%
798731 (antisense kG*kG*kT*dG*dG*dT*dG*dA*d[5mC]*d[5mC]*dT*dT*dT*kG*kG*k[5mC]) [compound 798731],43%,–
799060 (antisense kG*k[5mC]*k[5mC]*dA*d[5mC]*dT*dA*dG*d[5mC]*dA*dG*dG*d[5mC]*kT*k[5mC]*kG) [compound 799060],–,37%
799363 (kG*kA*kG*dT*dT*dA*dT*d[5mC]*d[5mC]*d[5mC]*d[5mC]*dA*dT*k[5mC]*kA*kA; antisense) [compound 799363],49%,–

# Same assay, conditions: Hep3B cells, electroporation, 10,000 nM antisense oligonucleotide, approximately 24 hours, RTS5062, relative to untreated control cells
row,Substance,% inhibition of SMAD7 mRNA expression
1,799720 (antisense kA*k[5mC]*kA*d[5mC]*dA*d[5mC]*dA*dG*d[5mC]*dA*dG*dA*dA*kG*kG*k[5mC]) [compound 799720],40%
2,799655 (antisense kT*kG*k[5mC]*dA*dG*d[5mC]*dT*dG*dA*dA*dT*dA*dA*k[5mC]*k[5mC]*kT) [compound 799655],47%
3,799692 (antisense kA*k[5mC]*kA*d[5mC]*dA*dG*dT*dA*dA*d[5mC]*dA*dA*d[5mC]*kA*kA*kT) [compound 799692],0%
4,799714 (antisense k[5mC]*kA*k[5mC]*d[5mC]*dA*dA*dA*dA*d[5mC]*dA*dA*dG*dT*kG*kT*k[5mC]) [compound 799714],33%
5,799557 (kA*kG*k[5mC]*d[5mC]*dA*dG*dT*dT*d[5mC]*dT*dT*dA*dG*kA*kA*kA; antisense) [compound 799557],28%
6,799833 (antisense kT*kT*kT*d[5mC]*dT*dG*dA*dA*d[5mC]*dA*dG*dA*dG*kT*k[5mC]*k[5mC]) [compound 799833],39%
7,799617 (k[5mC]*kA*kA*d[5mC]*d[5mC]*dT*dG*d[5mC]*dA*dG*d[5mC]*d[5mC]*dA*kG*k[5mC]*kA; antisense) [compound 799617],50%

# Same assay, conditions: SMAD7 mRNA, Hep3B cells, 10,000 nM antisense oligonucleotide, electroporation, approximately 24 hours, primer probe set RTS5062, relative to untreated control cells
row,Substance,% Inhibition
1,790855 (kA*k[5mC]*k[5mC]*dT*dT*dT*dT*d[5mC]*d[5mC]*dG*dG*dT*dA*kT*kT*kT; antisense) [compound 790855],40%
2,829738 (antisense kT*kA*kA*dG*dG*dA*dG*d[5mC]*dG*dA*dA*d[5mC]*dA*kT*kG*kA) [compound 829738],49%

# Same assay, conditions: SMAD7 mRNA, Hep3B cells, electroporation with 10,000 nM antisense oligonucleotide, approximately 24 hours, primer probe set RTS5062, relative to untreated control cells
row,Substance,% Inhibition
1,829831 (kG*kA*k[5mC]*d[5mC]*dG*dA*dT*d[5mC]*d[5mC]*d[5mC]*d[5mC]*dA*dG*kG*k[5mC]*kT; antisense) [compound 829831],9%
2,829932 (kT*kG*kA*dT*dA*dA*d[5mC]*dA*d[5mC]*d[5mC]*d[5mC]*dA*dT*kA*kG*kA; antisense) [compound 829932],41%
3,829989 (kG*kG*k[5mC]*d[5mC]*dG*d[5mC]*dG*dA*dG*dG*d[5mC]*dG*dG*kT*kG*kA; antisense) [compound 829989],2%
4,829952 (kA*k[5mC]*k[5mC]*d[5mC]*dG*dT*d[5mC]*dT*dG*dG*dG*d[5mC]*dT*k[5mC]*k[5mC]*kG; antisense) [compound 829952],2%
5,829970 (kT*kG*kG*dA*dA*dG*dG*dG*dA*dA*d[5mC]*d[5mC]*d[5mC]*k[5mC]*k[5mC]*kA; antisense) [compound 829970],0%
